Measured values taken from patent US7951796B2 (priority 2005, dated 2011).

Legend:
[1] = test system: cellular cholesterol in ScN2a cells; assay type: cell-based, mouse
[2] = test system: RML scrapie prion infection; assay type: in vivo, mouse (transgene TG 20); conditions: TG 20 mice

Compound: CCN(CC)CCCC(C)Nc1c2ccc(Cl)cc2nc2ccc(OC)cc12 (stereo not shown) [Quinacrin, reference compound]
- cholesterol distribution (filipin staining) [1]: redistribution was revealed to intracellular compartments

Compound: COc1ccc2nc3cc(Cl)ccc3c(NCCCCN3CCN(CCCN4c5ccccc5CCc5ccccc54)CC3)c2c1 [compound (10), (6-chlor-2-methoxy-acridine-9-yl)-(4-{4-[3-(10,11-dihydro-dibenzo[b,f]azepine-5-yl)-propyl]-piperazine-1-yl}-butyl)-amine]
- cholesterol distribution (filipin staining) [1]: redistribution was revealed to intracellular compartments
- time to death of prion disease ([2]; intracerebral RML scrapie, 2 mg per mouse by gavage three times weekly for eight weeks, untreated control 92±4 days): 100 ± 5 days
- lengthening of the survival time ([2]; versus untreated control, Student's t test p<0.0001): 10%
